Where two headings read alike, the source gives them in different places.
Test: log P by HPLC on reversed-phase columns (C 18), EEC directive 79/831 Annex V.A8
Format: physicochemical
Conditions: for logP[a]: method [a]; for logP[b]: method [b]
Description: The log P values were determined according to EEC directive 79/831 Annex V.A8 by HPLC (High Performance Liquid Chromatography) on reversed-phase columns (C 18), using the methods below:
[a] The LC-MS determination in the acidic range is carried out at pH 2.7 with 0.1% aqueous formic acid and acetonitrile (contains 0.1% formic acid) as mobile phases; linear gradient from 10% acetonitrile to 95% acetonitrile.
[b] The LC-MS determination in the neutral range is carried out at pH 7.8 using the mobile phases 0.001 molar aqueous ammonium bicarbonate solution and acetonitrile; linear gradient from 10% acetonitrile to 95% acetonitrile.

[1] = reversed-phase C18 HPLC column, pH 2.7, acidic range, pH 2.7, 0.1% aqueous formic acid / acetonitrile, read-out: log P[a]
[2] = reversed-phase C18 HPLC column, pH 7.8, neutral range, pH 7.8, 0.001 molar aqueous ammonium bicarbonate / acetonitrile, read-out: log P[b]
[3] = reversed-phase C18 HPLC column, pH 2.7, method [a], read-out: logP[a]
[4] = reversed-phase C18 HPLC column, pH 7.8, method [b], read-out: logP[b]

| SMILES | chromatographic logP [1] | chromatographic logP [2] | logP[a] | logP[b] | also measured |
| --- | --- | --- | --- | --- | --- |
| Cc1ccc(Br)cc1SCC(F)(F)F [VIIa-7, 5-Bromo-2-methylphenyl-2,2,2-trifluoroethyl sulphide] | 4.29 | 4.26 |  |  |  |
| Cc1ccc(B(O)O)cc1[S+]([O-])CC(F)(F)F (centres unmarked) [VIIIb-7, {4-Methyl-3-[(2,2,2-trifluoroethyl)sulphinyl]phenyl}boronic acid] | 1.41 | 1.36 |  |  |  |
| O=[N+]([O-])c1cc(SSc2ccc(Cl)c([N+](=O)[O-])c2)ccc1Cl [XIX-4, 1,1′-Disulphanediylbis(4-chloro-3-nitrobenzene)] |  |  |  |  | chromatographic logP (pH 2.7, log P[a]): 4.58; chromatographic logP (pH 7.8, log P[b]): 4.58 |
| Cc1nn(C)c2ncn(-c3ccc(C#N)c([S+]([O-])CC(F)(F)F)c3)c(=O)c12 (centres unmarked) [Compound 35] |  |  | 1.74 | 1.70 |  |
| Cc1cc(C)c(-n2c(C)nc3c(cnn3C)c2=O)cc1SCC(F)(F)F [Compound 6] |  |  | 2.92 | 2.86 |  |
| Cn1ncc2c(=O)n(-c3ccc(C(F)(F)F)c([S+]([O-])CC(F)(F)F)c3)cnc21 (racemic) [Compound 29] |  |  | 2.16 | 2.11 |  |
| Cc1ccc(-n2cnc3ccsc3c2=O)cc1SCC(F)(F)F [Compound 100] |  |  | 2.87 | 2.79 |  |
| Cc1cc(F)c(-n2c(C)nc3c(cnn3C)c2=O)cc1SCC(F)(F)F [Compound 14, 5-{2-Fluoro-4-methyl-5-[(2,2,2-trifluoroethyl)sulphanyl]phenyl}-1,6-dimethyl-1,5-dihydro-4H-pyrazolo[3,4-d]pyrimidin-4-one] | 2.84 | 2.79 |  |  | chromatographic logP [3]: 2.84; chromatographic logP [4]: 2.79 |
| Cc1ccc(-n2cnc3c(c(C)nn3C)c2=O)cc1SCC(F)(F)F [Compound 30] |  |  | 2.81 | 2.73 |  |
| Cc1ccc(Br)cc1SSc1cc(Br)ccc1C | > 7.36 | > 7.36 |  |  |  |
| Cc1ccc(-n2cnc3sccc3c2=O)cc1SCC(F)(F)F [Compound 83, 3-{4-Methyl-3-[(2,2,2-trifluoroethyl)sulphanyl]phenyl}thieno[2,3-d]pyrimidin-4(3H)-one] | 3.04 | 3.02 |  |  | chromatographic logP [3]: 3.09; chromatographic logP [4]: 3.01 |
| Cc1c2c(=O)n(-c3ccc(C#N)c(SCC(F)(F)F)c3)cnc2nn1C [Compound 50] |  |  | 1.99 | 1.92 |  |
| Cn1cnc2c(=O)n(-c3cc(SCC(F)(F)F)c(Cl)cc3F)cnc21 [Compound 57] |  |  | 2.19 | 2.17 |  |
| Cc1cc(C)c([S+]([O-])CC(F)(F)F)cc1-n1c(C)nc2c(cnn2C)c1=O (racemic) [Compound 10] |  |  | 1.86 | 1.84 |  |
| N#Cc1ccc(-n2cnc3sccc3c2=O)cc1SCC(F)(F)F [Compound 93] |  |  | 2.48 | 2.46 |  |
| O=c1c2ncsc2ncn1-c1cc([S+]([O-])CC(F)(F)F)c(Cl)cc1Cl (centres unmarked) [Compound 67] |  |  | 1.96 | 1.96 |  |
| Cc1nn(C)c2ncn(-c3ccc(C(F)(F)F)c(SCC(F)(F)F)c3)c(=O)c12 [Compound 31] |  |  | 3.06 | 2.99 |  |
| Cc1cc(C)c(-n2cnc3c(ncn3C)c2=O)cc1SCC(F)(F)F [Compound 55] |  |  | 2.28 | 2.23 |  |
| Cc1cc(F)c(-n2cnc3c(Cl)csc3c2=O)cc1SCC(F)(F)F [Compound 110] |  |  | 3.56 | 3.41 |  |
| Cc1cc(C)c(-n2c(C(F)(F)F)nc3c(cnn3C)c2=O)cc1SCC(F)(F)F [Compound 11] |  |  | 3.83 | 3.77 |  |
| Cc1ccc(B(O)O)cc1SCC(F)(F)F [VIIIa-7, {4-Methyl-3-[(2,2,2-trifluoroethyl)sulphanyl]phenyl}boronic acid] | 2.3 | 2.24 |  |  |  |

| SMILES | chromatographic logP [1] | chromatographic logP [2] | logP[a] | logP[b] | also measured |
| --- | --- | --- | --- | --- | --- |
| Cc1cc(F)c(-n2c(C)nc3c(cnn3CC(F)(F)F)c2=O)cc1[S+]([O-])CC(F)(F)F (racemic) [Compound 22] |  |  | 2.52 |  |  |
| Cc1cc(C)c(SCC(F)(F)F)cc1Br [VIIa-11, 1-Bromo-2,4-dimethyl-5-[(2,2,2-trifluoroethyl)sulphanyl]benzene] | 4.81 | 4.77 |  |  |  |
| Cc1cc(F)c(NC(=O)C(F)(F)F)cc1SCC(F)(F)F [Compound X-1, 2,2,2-Trifluoro-N-{2-fluoro-4-methyl-5-[(2,2,2-trifluoroethyl)sulphanyl]phenyl}acetamide] | 3.31 |  |  |  |  |
| Cc1cc(F)c(B(O)O)cc1[S+]([O-])CC(F)(F)F (centres unmarked) [VIIIb-1, {2-Fluoro-4-methyl-5-[(2,2,2-trifluoroethyl)sulphinyl]phenyl}boronic acid] | 1.38 | 1.11 |  |  |  |
| O=C(Nc1cc(SSc2cc(NC(=O)C(F)(F)F)c(F)cc2Cl)c(Cl)cc1F)C(F)(F)F [XI-2, N,N′-[Disulphanediylbis(4-chloro-6-fluorobenzene-3,1-diyl)]bis(2,2,2-trifluoroacetamide)] | 4.6 | 3.82 |  |  |  |
| Cn1ncc2c(=O)n(-c3cc([S+]([O-])CC(F)(F)F)c(Cl)cc3Cl)cnc21 (racemic) [Compound 4] |  |  | 2.11 | 2.09 |  |
| O=c1c2ccsc2ncn1-c1cc([S+]([O-])CC(F)(F)F)c(Cl)cc1Cl (centres unmarked) [Compound 98] |  |  | 2.53 | 2.53 |  |
| Cc1cc(F)c(-n2c(C(F)(F)F)nc3nn(C)cc3c2=O)cc1SCC(F)(F)F [Compound 42] |  |  | 3.27 | 3.19 |  |
| Cc1cc(F)c(NC(=O)c2cnn(C)c2N)cc1SCC(F)(F)F [5-Amino-N-{2-fluoro-4-methyl-5-[(2,2,2-trifluoroethyl)sulphanyl]phenyl}-1-methyl-1H-pyrazole-4-carboxamide] | 2.44 | 2.23 |  |  |  |
| Cc1cc(F)c(-n2c(C(F)(F)F)nc3c(cnn3C)c2=O)cc1SCC(F)(F)F [Compound 13, 5-{2-Fluoro-4-methyl-5-[(2,2,2-trifluoroethyl)sulphanyl]phenyl}-1-methyl-6-(trifluoromethyl)-1,5-dihydro-4H-pyrazolo[3,4-d]pyrimidin-4-one] | 3.75 | 3.94 |  |  | chromatographic logP [3]: 3.75; chromatographic logP [4]: 3.94 |
| Nc1ccc(Cl)c(SCC(F)(F)F)c1 [IVa-3, 4-Chloro-3-[(2,2,2-trifluoroethyl)sulphanyl]aniline] | 2.64 | 2.69 |  |  |  |
| Cn1ncc2c(=O)n(-c3ccc(C#N)c(SCC(F)(F)F)c3)cnc21 [Compound 24] |  |  | 2.07 | 2.06 |  |
| Nc1ccc(Cl)c(SSc2cc(N)ccc2Cl)c1 [XVIII-3, 3,3′-Disulphanediylbis(4-chloroaniline)] | 3.31 | 3.35 |  |  |  |
| COc1ccc(Br)cc1SCC(F)(F)F [VIIa-8, 4-Bromo-1-methoxy-2-[(2,2,2-trifluoroethyl)sulphanyl]benzene] | 3.69 | 3.81 |  |  |  |
| Cc1cc(F)c(-n2c(C(F)(F)F)nc3scnc3c2=O)cc1SCC(F)(F)F [Compound 65] |  |  | 3.55 | 3.51 |  |
| COc1ccc(-n2cnc3sccc3c2=O)cc1SCC(F)(F)F [Compound 84] |  |  | 2.75 | 2.71 |  |
| Cc1cc(F)c(N)cc1S [XVI-1, 5-Amino-4-fluoro-2-methylbenzenethiol] | 3.7 |  |  |  |  |
| Cc1cc(F)c(-n2c(C(F)(F)F)nc3c(cnn3C)c2=O)cc1[S+]([O-])CC(F)(F)F (centres unmarked) [Compound 16, 5-{2-Fluoro-4-methyl-5-[(2,2,2-trifluoroethyl)sulphinyl]phenyl}-1-methyl-6-(trifluoromethyl)-1,5-dihydro-4H-pyrazolo[3,4-d]pyrimidin-4-one] | 2.67 | 2.63 |  |  | log P[a] (acidic range, pH 2.7, 0.1% aqueous formic acid / acetonitrile): 2.74; log P[b] (neutral range, pH 7.8, 0.001 molar aqueous ammonium bicarbonate / acetonitrile): 2.70; chromatographic logP [3]: 2.67; chromatographic logP [4]: 2.63 |
| O=c1c2ccsc2ncn1-c1ccc(C(F)(F)F)c(SCC(F)(F)F)c1 [Compound 94] |  |  | 3.27 | 3.21 |  |
| Cc1cc(C)c(-n2cnc3c(cnn3C)c2=O)cc1SCC(F)(F)F [Compound 7] |  |  | 2.79 | 2.73 |  |
